Data taken from patent publication US9682130B2 (priority 2015, dated 2017).
Values after ≈ are worked out from the molar mass of the structure shown. Like-named read-outs stand apart in the source and are kept apart here.

What was measured:
[1] = Eye irritation, Draize scale (MMTS), Ad5/NZW rabbit ocular model; type: in vivo; conditions: NZW, rabbit, in vivo
Procedure: (§1) To conduct this in vivo assay, 25 NZW rabbit were anesthetized using the general anesthesia ketamine and xylazine and the topical anesthesia proparacaine. Each rabbit was then topically inoculated with 50 μL of Adenovirus serotype Ad5 (3×10^7 pfu/mL) in both eyes after corneal epithelial scarification (12 cross-hatched strokes of a 25 sterile needle). Eyes were closed and gently rubbed for 5 seconds to ensure contact of the virus on all ocular surfaces. Inoculation of both eyes allowed for the reduction in the number of animals needed without jeopardizing statistical validity. […] All topical solutions (37 μL drops) were instilled with an electronic pipette (EDP; Rainin, Oakland, Calif.) set in the multi-dispense mode. Ocular swabbing to recover adenovirus from tear film and corneal and conjunctival surfaces, after topical anesthesia with proparacaine, was performed at least 1 hour after the final dose on days 0, 1, 3, 4, 5, 7, 9, 11, and 14 after inoculation. The ocular samples from each eye was placed individually into tubes containing 1 mL of medium and were frozen at −70° C. pending viral plaque assay.
The animals were assayed for eye irritation using a Draize scale for ocular lesions. Classification of eye irritation was evaluated for both eyes of each rabbit on day 3 and day 9 using the maximum mean total score (MMTS; Table 4). See, e.g., Kay and Calandra, Interpretation of Eye Irritation Tests, J. Soc. Cos. Chem. 13: 281-289 (1962), the content of which is hereby incorporated by reference in its entirety. The MMTS score used was as follows: 0.0-0.5, Non-Irritating (N); 0.6-2.5, Practically Non-Irritating (PN); 2.6-15.0, Minimally Irritating (M1); 15.1-25.0, Mildly Irritating (M2); 25.1-50.0, Moderately Irritating (M3); 50.1-80.0, Severely Irritating (S); 80.1-100.0, Extremely Irritating (E); and 100.1-110.0, Maximally Irritating (Mx).

[2] = tested on: Adenovirus serotype Ad5; assay: Ad5/NZW rabbit ocular replication model, plaque assay of ocular samples; type: in vivo; conditions: 0.5% Cidofovir, twice daily 7 days
Procedure: See, e.g., Romanowski, et al., The In Vitro and In Vivo Evaluation of ddC as a Topical Antiviral for Ocular Adenovirus Infections, Invest. Ophthalmol. Vis. Sci. 50: 5295-5299 (2009), which is hereby incorporated by reference in its entirety.
as §1, with “surfaces.” for “surfaces. Inoculation of both eyes allowed for the reduction in the number of animals needed without jeopardizing statistical validity.”
The ocular samples were assayed for Ad5 titers by performing a plaque reduction assay. Samples were diluted 1:10 and these dilutions were inoculated onto duplicate wells of a 24 well multi-plate containing A549 monolayers. The virus was adsorbed for 3 hours at 37° C. in a 5% CO2-water vapor atmosphere without constant rocking. After adsorption, 1 mL of medium plus 0.5% methylcellulose was added to each well, and the plates were incubated at 37° C. in a 5% CO2-water vapor atmosphere. After 7 days, the cells were stained with 0.5% gentian violet, and the number of plaques counted using a dissecting microscope (25×). The viral titers were then calculated, and will be expressed as plaque-forming units per milliliter (PFU/mL). Data from the study were analyzed using analysis of variance (ANOVA) with Fisher's pair-wise comparisons and X^2 analyses using True Epistat and/or Minitab statistical software. Significance was established at the P≦0.05 confidence level.

[3] = tested on: Human Adenovirus 5 (AD5 strain NYS #98-1836); assay: microbe, parasite or virus in culture; type: cell-based; conditions: Human mastadenovirus C, MA104, Adenovirus 5, MA-104 cells
Procedure: (§2) To assess in vitro cytotoxicity, both a cytopathic effects of a virus (CPE) regression assay and a neutral red lysosomal uptake cell viability assay was performed essentially as described in, e.g., Repetto, et al., Neutral Red Uptake Assay for the Estimation of Cell Viability/Cytotoxicity, Nat. Protoc. 3: 1125-1131 (2008), the content of which is hereby incorporated by reference in its entirety. Ninety-six-well plates were seeded with MA-104 cells at 1×10^5 cells/mL and incubated overnight at 37° C. with 5% CO2. […] Each dilution was added to 5 wells of a 96-well plate with 80% to 100% confluent cells, and three wells of each dilution were then infected with one of the two test viruses. Two wells remained uninfected as controls for toxicity. Six wells per plate were set aside as uninfected, untreated cell controls, and six wells per plate were infected with no treatment as virus controls. […] Assay plates were incubated at 37° C. with 5% CO2. […] After CPE reduction assay was completed, a neutral red lysosomal uptake assay was conducted by filling each well with 0.011% (m/v) neutral red, a vital stain. The plates then were incubated for about 2 hours at 37° C. in the dark. The unincorporated neutral red solution was removed from the wells and the incorporated dye was then eluted by adding Sorensen's citrate-buffered ethanol. The plates were then read on a spectrophotometer at 540 nm to quantify the neutral red taken up by the healthy cells. The optical density of test wells was converted to percent of cell control and normalized to the virus controls.
The concentration of test compound required to inhibit CPE by 50% or reduce red uptake into cells by 50% (EC50) was calculated by regression analysis. The toxicity of the compound without virus present was similarly calculated using the uninfected wells treated with test compounds compared with untreated cell controls. The concentration of compound that would cause 50% cytotoxic effects in the absence of virus (CC50) was estimated by linear regression analysis. The selectivity index (SI) is the CC50 divided by EC50.

[4] = tested on: Human Adenovirus 8 (Ad8 strain 13306); assay: Neutral red lysosomal uptake assay, Adenovirus 8; type: cell-based; conditions: MA104; Adenovirus 8, MA-104 cells
Procedure: as §2, with “The unincorporated neutral red solution was removed from the wells and the incorporated dye was then eluted by adding Sorensen's citrate-buffered ethanol.” left out, “The optical density of test wells was converted to percent of cell control and normalized to the virus controls.” left out

[5] = in vitro; conditions: African green monkey
[6] = tested on: MA-104 cells; conditions: African green monkey
[7] = tested on: Human Adenovirus 8 (Ad8 strain 13306); assay: CPE reduction assay, Adenovirus 8; type: cell-based; conditions: MA104; Adenovirus 8, MA-104 cells
Procedure: as §2, with “The unincorporated neutral red solution was removed from the wells and the incorporated dye was then eluted by adding Sorensen's citrate-buffered ethanol.” left out, “The optical density of test wells was converted to percent of cell control and normalized to the virus controls.” left out

Question: With `Nc1ccn(C[C@@H](CO)OCP(=O)(O)O)c(=O)n1` [CDV, Cidofovir, reference compound] as the molecule, how does the “Ocular irritation MMTS score, Day 3” value ([1]; 3 day) read?
Answer: 5.9

Question: What about the “Ocular irritation MMTS score, Day 9” value ([1]; 9 day) of the same molecule?
Answer: 27.5

Question: And the “Ad5-positive ocular samples, percent, Day 1” value [2]?
Answer: 100%

Question: What about the “Ad5-positive ocular samples, percent, Day 3” value [2] of the same molecule?
Answer: 100%

Question: And the “Ad5-positive ocular samples, percent, Day 4” value [2]?
Answer: 100%

Question: What about the “Ad5-positive ocular samples, percent, Day 5” value [2] of the same molecule?
Answer: 100%

Question: And the “Ad5-positive ocular samples, percent, Day 7” value [2]?
Answer: 63%

Question: What about the “Ad5-positive ocular samples, percent, Day 11” value [2] of the same molecule?
Answer: 0%

Question: What about the “Ad5-positive ocular samples, percent, Day 14” value [2] of the same molecule?
Answer: 0%

Question: What about the “Ad5-positive ocular samples, percent, Total” value [2] of the same molecule?
Answer: 66.1%

Question: What about the “Ad5-positive ocular samples/total eyes, Day 1” value [2] of the same molecule?
Answer: 8/8

Question: What about the “Ad5-positive ocular samples/total eyes, Day 3” value [2] of the same molecule?
Answer: 8/8

Question: What about the “Ad5-positive ocular samples/total eyes, Day 4” value [2] of the same molecule?
Answer: 8/8

Question: And the “Ad5-positive ocular samples/total eyes, Day 5” value [2]?
Answer: 8/8

Question: And the “Ad5-positive ocular samples/total eyes, Day 7” value [2]?
Answer: 5/8

Question: What about the “Ad5-positive ocular samples/total eyes, Day 11” value [2] of the same molecule?
Answer: 0/8

Question: What about the “Ad5-positive ocular samples/total eyes, Day 14” value [2] of the same molecule?
Answer: 0/8

Question: And the “Ad5-positive ocular samples/total eyes, Total” value [2]?
Answer: 37/56

Question: For `Nc1ccn([C@H]2CC[C@@H](CO)O2)c(=O)n1` [ddC, 2′, 3′-Dideoxycytidine], which EC50 ([3]; read-out: CPE Reduction Assay EC50) is on record?
Answer: 2.1 µg/mL (≈ 9.94 µM)

Question: What about the EC50 ([3]; read-out: Neutral Red Assay EC50) of the same molecule?
Answer: 2.7 µg/mL (≈ 12.8 µM)

Question: And the EC50 [4]?
Answer: 2.7 µg/mL (≈ 12.8 µM)

Question: And the CC50 [5]?
Answer: < 5000 µg/mL

Question: And the “CPE Reduction Assay CC50” value [6]?
Answer: <5000 µg/mL

Question: What about the “Neutral Red Assay CC50” value [6] of the same molecule?
Answer: <5000 µg/mL

Question: What about the EC50 [7] of the same molecule?
Answer: 2.1 µg/mL (≈ 9.94 µM)
